The results in this text go back to patent US10807976B2, “Quinolinone five-membered heterocyclic compounds as mutant-isocitrate dehydrogenase inhibitors” (FORMA Therapeutics, Inc., priority 2015, dated 2020).

The target in the assay is IDH1-R132H recombinant protein (Homo sapiens, UniProt O75874, R132H). The experiment in a line: IDH1-R132H enzymatic assay (diaphorase/resazurin, NADPH consumption). It counts as biochemical. The settings on record: 30 nM IDH1-R132H, inhibition of NADPH consumption; read-out: Enzyme IDH1 R132H IC50. Here is the method:
Example 26—IDH1-R132H and IDH1-R132C Enzymatic Assay
Assays were performed in a 384-well black plate. An aliquot of 250 nL of compound was incubated with 10 μL of 30 nM IDH1-R132H or 10 nM IDH1-R132C recombinant protein in assay buffer (50 mM Tris pH=7.5, 150 mM NaCl, 5 mM MgCl2, 0.1% (w/v) Bovine Serum Albumin, and 0.01% Triton X-100) in each well at 25° C. for 15 minutes. After the plate was centrifuged briefly, an aliquot of 10 μL of 2 mM α-ketoglutarate and 20 μM NADPH solution prepared in assay buffer was then added to each well and the reaction was maintained at 25° C. for 45 minutes. An aliquot of 10 μL of diaphorase solution (0.15 U/mL diaphorase and 30 μM Resazurin in assay buffer) was added to each well. The plate was maintained at 25° C. for 15 minutes and then read on a plate reader with excitation and emission wavelengths at 535 nm and 590 nm, respectively. The IC50 of a given compound was calculated by fitting the dose response curve of inhibition of NADPH consumption at a given concentration with the four parameter logistic equation.
For orientation: The colour change of resazurin is a common sign of viable cells or microbes.

IDH1-R132H recombinant protein, sequence (O75874 whole entry R132H): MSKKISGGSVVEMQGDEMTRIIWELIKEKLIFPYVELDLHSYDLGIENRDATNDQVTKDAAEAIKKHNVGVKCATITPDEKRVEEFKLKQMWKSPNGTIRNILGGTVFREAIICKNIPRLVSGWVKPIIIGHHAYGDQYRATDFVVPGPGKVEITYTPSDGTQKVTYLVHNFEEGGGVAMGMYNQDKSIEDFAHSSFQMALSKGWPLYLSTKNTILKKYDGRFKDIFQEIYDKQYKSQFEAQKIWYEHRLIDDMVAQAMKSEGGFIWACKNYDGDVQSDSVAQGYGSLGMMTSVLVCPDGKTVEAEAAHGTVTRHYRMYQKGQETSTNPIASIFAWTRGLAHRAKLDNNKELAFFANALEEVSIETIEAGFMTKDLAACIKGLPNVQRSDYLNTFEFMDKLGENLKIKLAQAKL

A word on the IC50: it is the point on the concentration scale where inhibition reaches its midpoint. “6-chloro-3-[(1S)-1-{[5-(2-oxo-1,3-oxazolidin-3-yl)-1,2,4-thiadiazol-3-yl]amino}ethyl]-1,2-dihydroquinolin-2-one [Compound I-12]”: the half-maximal inhibitory concentration (IC50) is over 10 µM.
